Here are results for three compounds from US12655385B2, “Cell culture compositions with antioxidants and methods for polypeptide production” (Genentech, Inc., priority 2013, dated 2026).

Where a name gives a salt, the structure may show the parent alone.

One assay concerns monoclonal antibody. The assay is described as follows: Screen of taurine, carnosine and aminoguanidine in culture media, relative color intensity of antibody. The settings on record: 27.2 g/L aminoguanidine hydrochloride, 7 days 37° C. 250 rpm (FIG. 10). How it is done:
In order to identify a compound that reduces in antibody compositions and works under cell culture conditions, a screen assay in cell free medium was conducted. Taurine, carnosine and aminoguanidine were chosen for screening. These compounds were dissolved in 25 mL culture media at the concentration of 1.2 g/L (taurine), 13.6 g/L (carnosine), and 27.2 g/L (aminoguanidine hydrochloride). After pH adjustment to a range from 6.8 to 7.2 and sterile filtration with Steriflip filter units (Millipore, Billerica, MA) the solution was incubated in 50 mL Falcon tubes (BD Biosciences, San Jose, CA) equipped with TubeSpin caps (TPP Techno Plastic Products AG, Trasadingen, Switzerland). CHO cells were incubated for 7 days in a moisture controlled cell culture incubator at 37° C. and 250 rpm with no protection from light to produce the monoclonal antibody.
The monoclonal antibody in the harvested cell culture fluid (HCCF) and the incubation broth was further purified with affinity chromatography. Color intensity of the concentrated antibody composition was measured in the purified pool using an assay wherein higher numerical values indicated higher color intensity and lower numerical values indicated lower color intensity.
The relative color intensity for antibodies produced in culture medium containing taurine, carnosine, or aminoguanidine are shown in FIG. 10.

Another assay has as its system IgG1 monoclonal antibody. The assay is described as follows: Antioxidant screening: incubation of Media 1/Media 2 mixture spiked with antibody, color intensity of purified antibody. The settings on record: 1X test concentration (hypotaurine 9.16 mM, taurine 5.00 mM), 5 days 37° C.; normalized to positive control. The method, then:
For antioxidant screening, a total volume of 40 ml media was prepared by mixing 1 part basal Media 1 and 0.3 part feed Media 2 to mirror a representative ratio of media used in cell culture conditions (Table 5). […] The samples were incubated at 37° C. with shaking at 250 rpm for a five day incubation period.
After incubation, the monoclonal antibody was purified using affinity chromatography. Color intensity of the concentrated antibody composition was measured in the purified pool using an assay wherein higher numerical values indicate higher color intensity and lower numerical values indicate lower color intensity. The numerical results were normalized to the positive control, where the value for the positive control was set at 0% change in color intensity.

The subject of assay [1] is antibody producing CHO cells. The assay is described as follows: 2-liter stirred bioreactor fed-batch cell culture in Media 1/Media 2 with hypotaurine or carboxymethylcysteine. The class given is cell-based, Chinese Hamster. The settings on record: for Growth as measured by VCC: 12.95 mM hypotaurine or 10 mM carboxymethylcysteine in Media 1 (FIG. 7A); for cell viability: 12.95 mM hypotaurine or 10 mM carboxymethylcysteine in Media 1 (FIG. 7B); for antibody titer (HPLC): 12.95 mM hypotaurine or 10 mM carboxymethylcysteine in Media 1 (FIG. 8). The method, then: Antibody producing CHO cells were inoculated at approximately 1.0×10^6 cells/mL in 2-liter stirred bioreactors (Applikon, Foster City, CA) containing 1 L of basal Media 1 supplemented with 12.95 mM hypotaurine or 10 mM carboxymethylcysteine (CAS number 638-23-3). Cells were cultured in fed-batch mode with addition of 100 mL of feed Media 2 per liter of cell culture fluid at days 3, 6 and 9 for initiation of the production phase. A positive control was included by culturing cells in Media 1 and 2 without hypotaurine supplementation. The concentration of glucose was analyzed every day and if the glucose concentration fell below 2 g/L, it was replenished from a […] stock solution of glucose for prevention of glucose depletion. Reactors were equipped with calibrated dissolved oxygen, pH and temperature probes. Dissolved oxygen was controlled on-line through sparging with air and/or oxygen. pH was controlled through addition of CO2 or Na2CO3 and antifoam was added to the cultures as needed. The cell cultures were maintained at pH 7.0 and a temperature of 37° C. from days 0 through 3, and then at 35° C. after day 3. The cell cultures were agitated at 275 rpm and the dissolved oxygen level was at 30% of air saturation. Osmolality was monitored using an osmometer from Advanced Instruments (Norwood, MA). Offline pH and metabolite concentrations were also determined daily using a Nova Bioprofile 400 (Nova Biomedical, Waltham, MA). VCC and cell viability was measured daily using a ViCell® automated cell counter (Beckman Coulter, Fullerton, CA). The cell culture fluid was collected daily by centrifuging 1 mL of cell culture fluid for determination of antibody titer using high performance liquid chromatography. At the end of the cell culture duration on day 14, when the amount of protein in the culture was approximately 2-10 g/L, the cell culture fluid from all samples was harvested by centrifugation. The monoclonal antibody in the harvested cell culture fluid was purified using protein A affinity chromatography. The protein A pool was concentrated to 150 g/L using Amicon Centricon centrifugal filter devices (Millipore Corporation, Billerica, MA). Color intensity of the concentrated antibody composition was measured in the concentrated protein A pool using two different assays wherein higher numerical values indicated higher color intensity and lower numerical values indicated lower color intensity. […] This color intensity reduction was confirmed by using a second color assay which detected an approximate 17% and 13% color intensity reduction in antibody compositions isolated from cell cultured in media supplemented with hypotaurine and carboxymethylcysteine, respectively (FIG. 9B).

[2] abbreviates: listed as carboxy methyl cysteine.

For the compound `N=C(N)NN` [aminoguanidine, aminoguanidine hydrochloride], the decrease of color entry in the assay on monoclonal antibody was “about 71%”.
On to `NCCS(=O)(=O)O` [Taurine, 2-aminoethane-1-sulfonic acid], for which, in the assay with IgG1 monoclonal antibody, the “reduction of color intensity of the antibody-containing compositions” value is on record as “approximately 5%”.
On to `N[C@@H](CSCC(=O)O)C(=O)O` [carboxymethylcysteine, (2R)-2-amino-3-[(carboxymethyl)sulfanyl]propanoic acid], for which, in assay [1], the “Growth as measured by VCC” value is listed as “comparable among all cell cultures tested”, the cell viability result is on record as “comparable among all cell cultures tested” and the “antibody titer (HPLC)” value was “comparable levels of antibody titers”. In addition, in assay [1] (setting [2]), the “Growth as measured by VCC” value was “did not compromise”, the cell viability entry was “did not compromise” and the “antibody titer (HPLC)” value is on record as “did not significantly reduce”. Also, the “color intensity reduction of antibody compositions, second color assay” value in assay [1] (12.95 mM hypotaurine or 10 mM carboxymethylcysteine, protein A pool concentrated to 150 g/L (FIG. 9B)) is approximately 13%.
